Reference: patent publication US9464120B2, “Compositions for treatment of celiac disease” (ImmusanT, Inc., priority 2008, dated 2016)
Square brackets hold non-standard residues; d marks the D form. Peptide text beside a SMILES is read from it. pGlu = O=C1CC[C@@H](C(=O)O)N1

Columns and labels:
[1] = Pharmacokinetics after bolus intradermal injection in an adult rat; format: in vivo
Experimental: To improve their chemical stability and increase resistance to exopeptidases, peptides were synthesised as acetate salts of “capped” N-pyroglutamate, C-amide: NPL001 (SEQ ID NO:228), NPL002 (SEQ ID NO:229) and NPL003 (SEQ ID NO:230) 15mers or 16mers with glutamate at sites predicted to be deamidated by tTG. Indeed, capping extended the half-lives of peptides from 10-12 minutes for free peptides: NPL033, NPL038, and NPL034 (SEQ ID NOs:13, 320 and 321) after bolus intradermal injection of 0.9 mg in 0.1 ml in an adult rat to 26-28 minutes with N-pyroglutamate and C-amidation (SEQ ID NOs:228, 229 and 230) or 19-24 minutes with N-acetylation and C-amidation (SEQ ID NOs:231, 232, and 233), (see Table 4).

[2] = tested on: CD4+ T cells specific for NPL001; assay: Proliferation of transferred CFSE labelled NPL001-specific CD4+ T cells after subcutaneous administration (adoptive transfer model); format: in vivo; details: previous mouse studies
Description: The interaction between NPL001 (SEQ ID NO:228) and cognate T cells in vivo has been modelled by developing transgenic Black-6 mice expressing functional HLA-DR3 and -DQ2 (but not murine MHC Class II molecules) on antigen presenting cells (APC) who are transferred 3×10^6 CFSE labelled CD4^+ T cells specific for NPL001 (Chen Z., et al., 2006). The donor mouse (HH8-1) is transgenic for the NPL001-specific T cell receptor and human CD4 expressed on T cells, and also expresses HLA-DR3 DQ2 on APC. Overall 96% of the CD4^+ T cells in the HH8-1 mouse are clonal and specific for NPL001 (results not shown).
Four days after subcutaneous administration (in the hind foot hock) of an equimolar mixture of NPL001, NPL002 and NPL003 in 50 μl saline, spleen, gut-draining mesenteric lymph nodes (MLN) and the local draining popliteal lymph nodes (PLN) are harvested. Isolated mononuclear cells are stained for hCD4, and the T-cell receptor α- and β-chains expressed on the HH8-1 NPL001-specific T cells (Vα8 and Vβ8). Proliferation of transferred CFSE labelled cells is measured as the % CFSE^pos cells having undergone one or more division, as indicated by dilution of CFSE staining.

T1/2 half life ([1]; adult rat, intradermal bolus injection 0.9 mg in 0.1 ml saline of equimolar mixture): T1/2 28.20 minutes | AUC area under the curve (bioavailability) ([1]; rat, in vivo, 0.9 mg): AUC 89350 | half-life ([1]; rat, in vivo, intradermal bolus injection, 0.9 mg, adult rat, intradermal bolus injection 0.9 mg in 0.1 ml saline of equimolar mixture, read-out: T1/2 half life): 26 to 28 min
Structure (SMILES): CC(C)C[C@H](NC(=O)[C@@H]1CCC(=O)N1)C(=O)N[C@@H](CCC(N)=O)C(=O)N1CCC[C@H]1C(=O)N[C@@H](Cc1ccccc1)C(=O)N1CCC[C@H]1C(=O)N[C@@H](CCC(N)=O)C(=O)N1CCC[C@H]1C(=O)N[C@@H](CCC(=O)O)C(=O)N[C@@H](CC(C)C)C(=O)N1CCC[C@H]1C(=O)N[C@@H](Cc1ccc(O)cc1)C(=O)N1CCC[C@H]1C(=O)N[C@@H](CCC(N)=O)C(=O)N1CCC[C@H]1C(=O)N[C@@H](CCC(N)=O)C(N)=O [NPL001, pyroELQPFPQPELPYPQPQ-amide] ([pGlu]LQPFPQPELPYPQPQ-NH2)
bioactivity in vivo of a single dose [2]: bioactive in vivo
